Test results as given in publication PMC4033661 (Journal of medicinal chemistry, 2014).
≈ marks a conversion by molar mass, not a printed value. Entries after “also recorded” stand apart in the source; their conditions may differ. Values belong to the compound of their own block, whether it stands above or below them.

Experiments:
[1] = molecular target: T1, human platelet 12-lipoxygenase (12-LOX) (Homo sapiens, UniProt P18054); assay: Lipoxygenase UV-Vis assay, 12-LOX selectivity
T1 sequence (P18054 1-663): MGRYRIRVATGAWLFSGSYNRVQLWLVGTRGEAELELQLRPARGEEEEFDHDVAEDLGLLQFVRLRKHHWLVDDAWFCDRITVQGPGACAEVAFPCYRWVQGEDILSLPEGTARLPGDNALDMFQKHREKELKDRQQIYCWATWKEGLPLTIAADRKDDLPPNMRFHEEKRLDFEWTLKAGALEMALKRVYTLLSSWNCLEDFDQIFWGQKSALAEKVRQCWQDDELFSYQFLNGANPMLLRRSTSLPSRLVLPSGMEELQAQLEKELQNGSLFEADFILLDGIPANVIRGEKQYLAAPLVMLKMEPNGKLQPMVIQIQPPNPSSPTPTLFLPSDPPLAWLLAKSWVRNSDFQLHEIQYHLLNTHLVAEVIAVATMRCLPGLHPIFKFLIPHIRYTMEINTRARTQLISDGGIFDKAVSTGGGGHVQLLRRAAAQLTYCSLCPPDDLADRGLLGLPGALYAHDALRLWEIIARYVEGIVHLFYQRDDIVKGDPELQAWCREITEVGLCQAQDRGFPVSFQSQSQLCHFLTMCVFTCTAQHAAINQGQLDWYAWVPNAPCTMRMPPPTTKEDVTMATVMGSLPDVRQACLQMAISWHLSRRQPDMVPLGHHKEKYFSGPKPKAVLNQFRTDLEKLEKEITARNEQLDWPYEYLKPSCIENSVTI

human 12/15-LOX = details: read-out: 12/15-LOX IC50; cited from earlier work
[2] = Aqueous kinetic solubility in PBS buffer; assay type: physicochemical; details: pH 7.4
[3] = Microsomal stability, mouse; assay type: in vitro ADME; details: mouse liver microsomes, in the presence of NADPH
[4] = Stability in aqueous solutions; assay type: physicochemical; details: pH 2, pH 7.4, pH 9
[5] = Microsomal stability, rat; assay type: in vitro ADME; details: rat liver microsomes, in the presence of NADPH
HT22 cells = assay: HT22 cell culture assay, glutamate-induced cell death; assay type: cell-based, mouse

IC50 [1]: > 50000 nM
SMILES: CNc1sc(-c2cccc3ccccc23)nc1C#N [Compound 32, 5-(methylamino)-2-(naphthalen-1-yl)thiazole-4-carbonitrile]

SMILES: C[C@H]1[C@H](C)CC[C@]2(C)CC[C@]3(C)C(=CC[C@@H]4[C@@]5(C)CC[C@@H](O)[C@](C)(C(=O)O)[C@@H]5CC[C@]43C)[C@H]12 [boswellic acid]
IC50 (human 12/15-LOX): 1000 nM

solubility kinetic [2]: 1.2 µM (≈ 0.299 µg/mL)
Microsomal Stability T1/2 [3]: 5.5 (mouse) min
stability in aqueous solutions [4]: stable
Microsomal Stability T1/2 [5]: 18 (rat) min
SMILES: CNc1oc(-c2cccc3ccccc23)nc1C#N [Compound 1, 5-(Methylamino)-2-(naphthalen-1-yl)oxazole-4-carbonitrile]
protection against oxidative glutamate toxicity (HT22 cells; HT22 cells, 5 mM glutamate, increasing amounts of compound): protective; also recorded: dose-dependent protection

SMILES: O=c1cc(-c2ccccc2)oc2cc(O)c(O)c(O)c12 [baicalein]
IC50 (human 12/15-LOX): 1600 nM

SMILES: CNc1nc(C#N)c(-c2cccc3ccccc23)o1 [Compound 34]
cellular protection in HT22 cells (HT22 cells; 5 μM concentration, glutamate-treated): did not protect; also recorded: does not protect
